From patent US20260035670A1, “IN VITRO CONSTRUCT USEFUL FOR DRUG TOXICITY SCREENING” (Wake Forest University Health Sciences, priority 2022, published 2026)

What was measured:
USC in 3D USC-SFM = test: Cell viability/growth of 3D USC-SFM treated with ddC (CCK-8); format: cell-based, human
Procedure: Cell proliferation or viability was measured at different time points after USC were seeded on 2D, spheroids and 3D-SFM in 96-well plates, respectively, assessed by Cell Counting Kit-8 (CCK-8 assay, Dojindo, Japan), according to manufacturer's instructions. The absorbance at 450 nmwas measured using microplate reader (MultiSkan FC, Thermo, USA). To determine the dose effect of ddC on cell viability, mitochondrial function and oxidative stress of USC in both 3D cultures, ddC was added to spheroids and USC-SFM at different doses: 0.2, 2 and 10 μM in the culture medium every 2 days, 3 replicates per concentration. To evaluate the time-dependent effect of ddC on USC in 3D cultures, spheroids and USC-SFM samples were assayed 2-6 weeks after administering ddC, 3 replicates per time point. DMSO (0.1%) was used as a control.

[1] = tested on: oxidative phosphorylation complexes I-V in USC of 3D USC-SFM; test: Oxidative phosphorylation complexes I-V in 3D USC-SFM after ddC (Western blot); format: cell-based, human
Procedure: (§1) To determine the dose effect of ddC on cell viability, mitochondrial function and oxidative stress of USC in both 3D cultures, ddC was added to spheroids and USC-SFM at different doses: […] 2 days, 3 replicates per concentration. To evaluate the time-dependent effect of ddC on USC in 3D cultures, spheroids and USC-SFM samples were assayed 2-6 weeks after administering ddC, 3 replicates per time point. DMSO (0.1%) was used as a control.
(§2) To generate sufficient cell numbers for immunoblot analysis, USC (5×10^5 cells) within spheroids and 1-SFM were loaded in 81-well molds made by Micro-Tissues 3D Petri Dish (Sigma, USA). USC in 2D culture were seeded onto a 6-well plate at a density of 5×10^5 cells/well as control. After a wash of the cell samples with PBS, the USC were harvested and incubated for 30 min in the presence of […] of lysis buffer (Pierce, Rockford, IL) with 1% protease/phosphatase inhibitor cocktail (Cell Signaling Technology, Danvers, MA), vortexing every 5 min during incubating. The lysate was clarified by centrifugation, and protein concentrations were tested by Pierce™ BCA Protein Assay Kit. Following separation in 15% SDS-PAGE gels, the proteins were transferred onto a PVDF membrane (ThermoFisher) by a Bio-Rad Trans-Blot SD Semi-Dry Transfer Cell under 12 V for 1 h.
(§3) Individual activity of oxidative phosphorylation complexes I, II, II IV, V94 and mitochondrial SOD2 in USC before or after treatment with ddC at three doses were assessed. The membrane was blocked for 30 min in PBS-0.1% Tween 20 (PBST) containing 5% bovine serum albumin (BSA), washed with PBST, and incubated with the primary antibodies for 2 h or 4° C. overnight, diluted by PBST containing 5% BSA. After extensive washing with PBST, the membrane was incubated in the secondary antibodies correspondingly for 1 h at room temperature. The washed membrane was treated with an Immobilon ECL Ultra Western HRP Substrate (Millipore Sigma) and analyzed with a Fujifilm LAS-3000 Luminescent Image Analyzer system.

[2] = tested on: USC in 3D silk fiber matrix (3D USC-SFM); test: mtDNA content (q-PCR) and mitochondrial mass of USC in 3D USC-SFM treated with ddC; format: cell-based, human
Procedure: as §1
(§4) To measure the levels of cell senescence genes ([…], 21 and Rb) (Kang et al. Science 349 (2015) aaa5612) and mitochondrial DNA (mtDNA) content, mRNA expression of spheroid (n ¼ 3) and 3D USC-SFM (n ¼ 3) samples were assessed using BioRad CFX connect Real-time PCR Detection System (Rooney et al. Methods Mol. Biol. 1241 (2015) 23e38). Genomic DNA was extracted from the cells using a DNeasy Blood & Tissue Kit (Qiagen, Valencia, Cat. No 69504) according to the manufacturer's protocol. The Q-PCR recipe was a mix with SYBR Green SuperMix (ThermoFisher, USA, Cat. No 4367659) using both the mitochondrial and the nuclear primers, and this temperature cycling was used: initial denaturing at 50° C. for 2 min, 95° C. for 15 min, followed by 40 cycles of denaturing at 95° C. for 30 s, annealing at 60° C. for 1 s and extension at 95° C. for 15 s, 60° C. for 1 min, annealing at 95° C. for 15 s, 60° C. for 1 min and dissociating at 95° C. for 15 s.

USC in 2D culture = test: Cell viability and growth of USC in 2D culture treated with ddC; format: cell-based, human
Procedure: Cell proliferation or viability was measured at different time points after USC were seeded on 2D, spheroids and 3D-SFM in 96-well plates, respectively, assessed by Cell Counting Kit-8 (CCK-8 assay, Dojindo, Japan), according to manufacturer's instructions. The absorbance at 450 nmwas measured using microplate reader (MultiSkan FC, Thermo, USA).

[3] = tested on: oxidative phosphorylation complexes I-V in USC of 3D spheroids; test: Oxidative phosphorylation complexes I-V in 3D USC spheroids after ddC (Western blot); format: cell-based, human
Procedure: (§5) To determine the dose effect of ddC on cell viability, mitochondrial function and oxidative stress of USC in both 3D cultures, ddC was added to spheroids and USC-SFM at different doses: 0.2, 2 and 10 μM in the culture medium every 2 days, 3 replicates per concentration. To evaluate the time-dependent effect of ddC on USC in 3D cultures, spheroids and USC-SFM samples were assayed 2-6 weeks after administering ddC, 3 replicates per time point. DMSO (0.1%) was used as a control.
as §2, §3

USC in 3D spheroids = test: mtDNA content (q-PCR) and mitochondrial mass of USC in 3D spheroids treated with ddC; format: cell-based, human
Procedure: as §5, §4

CD4+ T cells = conditions: Korencak et al. 2019; cited from earlier work
microglia cells = conditions: George et al. 2021; cited from earlier work
[4] = Gorwood et al. 2020; cited from earlier work
[5] = 3D USC-SFM, six weeks after ddC (0.2, 2, and 10 μM), vs 0.1% DMSO control
[6] = 3D spheroids, six weeks after ddC (0.2, 2, and 10 µM), vs 0.1% DMSO control

With `Nc1ccn([C@H]2CC[C@@H](CO)O2)c(=O)n1` [ddC, Zalcitabine] the “cell survival and growth” value (USC in 3D USC-SFM; 3D USC-SFM, 3 days, or 1, 2, 4, and 6 weeks) was “did not significantly affect”, the cytotoxicity (USC in 3D USC-SFM; USC in 3D cultures) was “mild” and the “levels of complex I, and IV” value ([1]; 2 weeks, ddC 2 and 10 μM vs low dose (0.1 μM)) was “significantly decreased”. For the same compound, the “mitochondrial toxicity (decreasing levels of complexes I-IV)” value ([1]; 3D SFM) was “significant dose- and time-dependent”, the “Levels of complexes I, II, and III” value ([1]; 3D SFM-USC treated with ddC) was “significantly decreased” and the “levels of complexes II, III and IV” value ([1]; 3D USC-SFM compared to complex levels in spheroids) was “significantly decreased”. The “chronic MtT” value ([1]; 3D USC-SFM model) was “dose- and time-dependent chronic MtT displayed”, the “complex I-IV levels” value ([1]; 3D USC-SFM, ddC 2 and 10 μM, 6 weeks compared to 2 weeks) was “significantly decreased” and the “increase of levels of complexes I, II and IV” value ([1]; 3D USC-SFM, low dose ddC) was “did not occur”. For the same compound, the “mitochondrial function (inhibiting oxidative phosphorylation complex I-IV)” value ([1]; 3D culture models) was “significant impairment”, the “levels of complex I, II, III and IV” value ([1]; 6 weeks, middle and high dose ddC vs low dose) was “significantly declined” and the “activity of complex II-IV” value ([1]; USC-SFM, ddC middle and high doses vs low dose, week 6) was “significantly decreased”. For the same compound, the “expression of ETC complex I-IV” value ([1]; USC-SFM, ddC middle and high doses, wk 6) was “decrease”, the “Levels of mtDNA content” value ([2]; 3D USC-SFM, 2 and 6 weeks, ddC 0.2, 2, or 20 μM, vs DMSO standardized as 100%) was “significantly decreased” and the “Manner of decrease of mtDNA content” value ([2]; 3D USC-SFM, q-PCR) was “time-depended manner”. The mitochondrial mass [2, 5] was “significantly decreased”, the mtDNA content [2, 5] was “significantly decreased” and the mtDNA content ([2]; ddC at 2 or 20 μM compared to 0.1 μM ddC, 3D culture of USC (model not given)) was “significantly inhibited”. The “cell viability and growth of USC” value (USC in 2D culture) was “significantly affected”, the “cells remaining on the dishes” value (USC in 2D culture; 2 weeks after ddC treatment) was “few cells remaining” and the “expression of ETC complex I-IV” value ([3]; 3D organoids, ddC middle and high doses, wk 6) was “decrease”. For the same compound, the “levels of complexes I, II and IV” value ([3]; 3D spheroids, low dose ddC) was “significantly increased”, the “mitochondrial toxicity (decreasing levels of complexes I-IV)” value ([3]; spheroids) was “significant dose- and time-dependent” and the “complex I level (only complex affected)” value ([3]; spheroids treated with ddC) was “declined”. For the same compound, the “Levels of mtDNA content” value (USC in 3D spheroids; 3D spheroid of USC, 2 and 6 weeks, ddC 0.2, 2, or 20 μM, vs DMSO standardized as 100%) was “significantly decreased”, the “Manner of decrease of mtDNA content” value (USC in 3D spheroids; 3D spheroids of USC, q-PCR) was “dose-dependent manner” and the mitochondrial mass (USC in 3D spheroids; [6]) was “significantly decreased”. The mtDNA content (USC in 3D spheroids; [6]) was “significantly decreased”.

In the case of `C[C@@H]1CCO[C@H]2Cn3cc(C(=O)NCc4ccc(F)cc4F)c(=O)c(O)c3C(=O)N12` [dolutegravir], the “levels of mitochondrial ROS and mitochondrial mass” value (CD4+ T cells) is listed as “increased”, the mitochondrial dysfunction (microglia cells) is listed as “induces mitochondrial dysfunction” and the “pro-adipogenic and pro-lipogenic effects, oxidative stress, mitochondrial dysfunction, insulin resistance” value [4] is listed as “display pro-adipogenic and pro-lipogenic effects, and promote oxidative stress, mitochondrial dysfunction, and insulin resistance”.

For `COc1cc2c(cc1Cc1cccc(Cl)c1F)c(=O)c(C(=O)O)cn2[C@H](CO)C(C)C` [elvitegravir], the “levels of mitochondrial ROS and mitochondrial mass” value (CD4+ T cells) is listed as “increased”.
